Data: US20240000803A1, “ORAL FORMULATION OF BIOLOGICALLY ACTIVE MATERIAL CONJUGATE HAVING BIOTIN MOIETY, FATTY ACID MOIETY, OR COMBINATION THEREOF COUPLED THERETO” (D&D Pharmatech Inc., priority 2020, published 2024)
Where no end group is shown, it is not given here. [ ]: non-standard residue; d: D form. The star is where a group is joined. Biotin = O=C1N[C@H]2[C@H](CS[C@H]2CCCCC(=O)*)N1; F11 = C18-Glu-EG2-EG2-NHS; Aib = CC(C)(N)C(=O)O

System: not listed separately
Assay: Weight reduction and feed intake reduction over 24 hours after oral administration
Format: in vivo
Conditions: mice, formulation with sodium chenodeoxycholate and propyl gallate (Table 13)
Description: Physiologically active substances bound to a biotin moiety, fatty acid moiety or a combination thereof, prepared in accordance with the above example, were formulated by dissolving in a vehicle (0.02% polysorbate 80 in 10 mM PBS (pH 7.4)) with the compositions of excipients shown in Table 13, then administered orally to mice. Weight reduction and feed intake reduction were measured over 24 hours.

| Substance | Weight loss compared to untreated group (%) |
| --- | --- |
| Polypeptide SEQ ID NO: 24: amylin derivative KCNTATCATQRLANFLVHSSNNFGPILPPTNVGSNTY (Amylin derivative) [reference compound] | −2.63 ± 1.06 |
| Conjugate 36: Polypeptide SEQ ID NO 26 (amylin derivative) with biotin moiety B38 at K1 (K(Biotin)CNTATCATQRLADFLRHSSPNFGAIPSSTNVGSRTY; ends and bridges not checked) | −4.53 ± 0.86 |
| Polypeptide SEQ ID NO: 28: amylin derivative KCNTATCATQRLADFLRHSSNNFGAIPSSTNVGSRTY (Amylin derivative) [reference compound] | −1.11 ± 0.84 |
| Conjugate 33: Polypeptide SEQ ID NO 24 (amylin derivative) with biotin moiety B38 at K1 (K(Biotin)CNTATCATQRLANFLVHSSNNFGPILPPTNVGSNTY; ends and bridges not checked) | −4.07 ± 1.30 |
| Conjugate 62: Polypeptide SEQ ID NO 26 with biotin moiety B38 at K1 and fatty acid moiety F11 at K1 (KCNTATCATQRLADFLRHSSPNFGAIPSSTNVGSRTY; not fully specified (residue 1); ends and bridges not checked; also: biotin B38 and fatty acid F11 both at K1, attachment sites not given here) | −3.32 ± 1.31 |
| Conjugate 39: Polypeptide SEQ ID NO 28 (amylin derivative) with biotin moiety B38 at K1 (K(Biotin)CNTATCATQRLADFLRHSSNNFGAIPSSTNVGSRTY; ends and bridges not checked) | −1.99 ± 0.94 |
| Polypeptide SEQ ID NO: 26: amylin derivative KCNTATCATQRLADFLRHSSPNFGAIPSSTNVGSRTY (Amylin derivative) [reference compound] | −3.13 ± 1.05 |
| Polypeptide SEQ ID NO: 30: amylin derivative RCNTATCATQRLADFLRHSSNNFGAIPSSTNVGSKTY (Amylin derivative) [reference compound] | −1.17 ± 0.76 |
| Conjugate 64: Polypeptide SEQ ID NO 30 with biotin moiety B38 at K35 and fatty acid moiety F11 at K1 (RCNTATCATQRLADFLRHSSNNFGAIPSSTNVGSK(Biotin)TY; ends and bridges not checked; also: fatty acid F11 at K1, but residue 1 is R) | −3.38 ± 1.26 |
| Conjugate 63: Polypeptide SEQ ID NO 28 with biotin moiety B38 at K1 and fatty acid moiety F11 at K1 (KCNTATCATQRLADFLRHSSNNFGAIPSSTNVGSRTY; not fully specified (residue 1); ends and bridges not checked; also: biotin B38 and fatty acid F11 both at K1, attachment sites not given here) | −2.41 ± 0.78 |
| Conjugate 61: Polypeptide SEQ ID NO 24 with biotin moiety B38 at K1 and fatty acid moiety F11 at K1 (KCNTATCATQRLANFLVHSSNNFGPILPPTNVGSNTY; not fully specified (residue 1); ends and bridges not checked; also: biotin B38 and fatty acid F11 both at K1, attachment sites not given here) | −2.96 ± 4.22 |

System: glycated hemoglobin
Assay: Glycated hemoglobin change after oral administration once daily over 3 weeks (Conjugate 56)
Format: in vivo
Conditions: mice, oral once daily 3 weeks, formulation with one bile acid and propyl gallate
Description: Physiologically active substances bound to a biotin moiety prepared in accordance with the above example were formulated by dissolving in a vehicle with the compositions of excipients shown in Table 23. These were orally administered to mice once daily over 3 weeks, and changes in glycated hemoglobin were measured.

| Substance | glycated hemoglobin reduction effect |
| --- | --- |
| Conjugate 56: Polypeptide SEQ ID NO 40 (glucagon derivative) with biotin moiety B38 at K12 and fatty acid moiety F11 at K30 (H[Aib]QGTFTSDYSK(Biotin)YLDEQAAKEFVQWLMNTK(F11)) | exhibited a glycated hemoglobin reduction effect |

Same assay, conditions: mice, oral once daily over 3 weeks, 1.343 mg/kg; sCDC 68 mg/kg, PG 34 mg/kg

| Substance | ΔGlycated Hemoglobin [%] |
| --- | --- |
| Conjugate 56: Polypeptide SEQ ID NO 40 (glucagon derivative) with biotin moiety B38 at K12 and fatty acid moiety F11 at K30 (H[Aib]QGTFTSDYSK(Biotin)YLDEQAAKEFVQWLMNTK(F11)) | −0.47 ± 0.34 |

Same assay, conditions: mice, oral once daily over 3 weeks, 4.475 mg/kg; sCDC 68 mg/kg, PG 34 mg/kg

| Substance | ΔGlycated Hemoglobin [%] |
| --- | --- |
| Conjugate 56: Polypeptide SEQ ID NO 40 (glucagon derivative) with biotin moiety B38 at K12 and fatty acid moiety F11 at K30 (H[Aib]QGTFTSDYSK(Biotin)YLDEQAAKEFVQWLMNTK(F11)) | −0.98 ± 0.67 |
